Test results from ChEMBL document CHEMBL4507273 (2021).

Experiments:
[1] = target: Mitogen-activated protein kinase kinase kinase 19 (Homo sapiens) (UniProt Q56UN5); conditions: Compound concentration 1000.0 nM
[2] = target: Serine/threonine-protein kinase 32C (Homo sapiens) (UniProt Q86UX6); conditions: Compound concentration 1000.0 nM
[3] = target: Tyrosine-protein kinase Srms (Homo sapiens) (UniProt Q9H3Y6); conditions: Compound concentration 1000.0 nM
[4] = target: Fibroblast growth factor receptor 2 (Homo sapiens) (UniProt P21802); conditions: Compound concentration 1000.0 nM
[5] = target: Casein kinase I isoform gamma-3 (Homo sapiens) (UniProt Q9Y6M4); conditions: Compound concentration 1000.0 nM
[6] = target: Mitogen-activated protein kinase kinase kinase 12 (Homo sapiens) (UniProt Q12852); conditions: Compound concentration 1000.0 nM
[7] = target: Membrane-associated tyrosine- and threonine-specific cdc2-inhibitory kinase (Homo sapiens) (UniProt Q99640); conditions: Compound concentration 1000.0 nM
[8] = target: Phosphorylase b kinase gamma catalytic chain, skeletal muscle/heart isoform (Homo sapiens) (UniProt Q16816); conditions: Compound concentration 1000.0 nM
[9] = target: cGMP-dependent protein kinase 2 (Homo sapiens) (UniProt Q13237); conditions: Compound concentration 1000.0 nM
[10] = target: cAMP-dependent protein kinase catalytic subunit beta (Homo sapiens) (UniProt P22694); conditions: Compound concentration 1000.0 nM
[11] = target: Serine/threonine-protein kinase 25 (Homo sapiens) (UniProt O00506); conditions: Compound concentration 1000.0 nM
[12] = tested on: Receptor-type tyrosine-protein kinase FLT3 (Homo sapiens), P36888 [D835V]; conditions: Compound concentration 1000.0 nM
[13] = target: Dual specificity mitogen-activated protein kinase kinase 1 (Homo sapiens) (UniProt Q02750); conditions: Compound concentration 1000.0 nM
[14] = tested on: Phosphatidylinositol 4,5-bisphosphate 3-kinase catalytic subunit alpha isoform (Homo sapiens), P42336 [I800L]; conditions: Compound concentration 1000.0 nM
[15] = target: Sodium-dependent serotonin transporter (Homo sapiens, UniProt P31645); conditions: Compound concentration 10.0 uM
[16] = tested on: Tyrosine-protein kinase ABL1 (Homo sapiens), P00519 [T315I]; conditions: Compound concentration 1000.0 nM
[17] = target: Serine/threonine-protein kinase PAK 1 (Homo sapiens) (UniProt Q13153); conditions: Compound concentration 1000.0 nM
[18] = target: Dual specificity testis-specific protein kinase 1 (Homo sapiens) (UniProt Q15569); conditions: Compound concentration 1000.0 nM
[19] = tested on: Epidermal growth factor receptor (Homo sapiens), P00533 [L858R]; conditions: Compound concentration 1000.0 nM
[20] = target: Mitogen-activated protein kinase 6 (Homo sapiens) (UniProt Q16659); conditions: Compound concentration 1000.0 nM
[21] = target: Cytoplasmic tyrosine-protein kinase BMX (Homo sapiens) (UniProt P51813); conditions: Compound concentration 1000.0 nM
[22] = tested on: ALK tyrosine kinase receptor (Homo sapiens), Q9UM73 [C1156Y]; conditions: Compound concentration 1000.0 nM
[23] = target: Serine/threonine-protein kinase N1 (Homo sapiens) (UniProt Q16512); conditions: Compound concentration 1000.0 nM
[24] = target: Cyclin-dependent kinase 19 (Homo sapiens) (UniProt Q9BWU1); conditions: Compound concentration 1000.0 nM
[25] = target: Bone morphogenetic protein receptor type-1B (Homo sapiens) (UniProt O00238); conditions: Compound concentration 1000.0 nM
[26] = target: Serine/threonine-protein kinase DCLK3 (Homo sapiens) (UniProt Q9C098); conditions: Compound concentration 1000.0 nM
[27] = target: GABA-A receptor; anion channel (Rattus norvegicus) (UniProt O09028+P15431+P18506+P18508+P19969+P20236+P23574+P23576+P28471+P28473+P30191+P62813+P63079+P63138+Q91ZM7+Q9ES14); conditions: Compound concentration 10.0 uM
[28] = target: LIM domain kinase 1 (Homo sapiens) (UniProt P53667); conditions: Compound concentration 1000.0 nM
[29] = target: Protein kinase C iota type (Homo sapiens) (UniProt P41743); conditions: Compound concentration 1000.0 nM
[30] = target: Mitogen-activated protein kinase kinase kinase 9 (Homo sapiens) (UniProt P80192); conditions: Compound concentration 1000.0 nM
[31] = target: Cyclin-dependent kinase 11B (Homo sapiens) (UniProt P21127); conditions: Compound concentration 1000.0 nM
[32] = target: Serine/threonine-protein kinase RIO2 (Homo sapiens) (UniProt Q9BVS4); conditions: Compound concentration 1000.0 nM
[33] = target: Phosphatidylinositol 3-kinase catalytic subunit type 3 (Homo sapiens) (UniProt Q8NEB9); conditions: Compound concentration 1000.0 nM
[34] = target: Ephrin type-A receptor 2 (Homo sapiens) (UniProt P29317); conditions: Compound concentration 1000.0 nM
[35] = target: T1, Alpha-1A adrenergic receptor (Homo sapiens) (UniProt P35348); conditions: Compound concentration 10.0 uM
T1 sequence (whole entry): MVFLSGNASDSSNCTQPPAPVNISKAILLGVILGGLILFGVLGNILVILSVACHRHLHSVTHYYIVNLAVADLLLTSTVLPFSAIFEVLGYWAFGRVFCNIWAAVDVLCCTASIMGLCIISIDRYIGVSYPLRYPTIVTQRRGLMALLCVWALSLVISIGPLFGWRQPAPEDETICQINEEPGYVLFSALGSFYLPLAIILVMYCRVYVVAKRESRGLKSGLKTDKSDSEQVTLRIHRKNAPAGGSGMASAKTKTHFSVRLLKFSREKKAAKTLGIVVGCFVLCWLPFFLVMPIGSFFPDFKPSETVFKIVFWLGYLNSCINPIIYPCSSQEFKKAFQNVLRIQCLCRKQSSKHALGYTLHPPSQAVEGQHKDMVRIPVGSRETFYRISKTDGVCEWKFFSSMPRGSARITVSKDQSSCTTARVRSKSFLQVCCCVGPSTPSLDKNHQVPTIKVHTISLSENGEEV

[36] = target: Serine/threonine-protein kinase TBK1 (Homo sapiens) (UniProt Q9UHD2); conditions: Compound concentration 1000.0 nM
[37] = target: Tyrosine-protein kinase ITK/TSK (Homo sapiens) (UniProt Q08881); conditions: Compound concentration 1000.0 nM
Tyrosine-protein kinase ITK/TSK (Homo sapiens), sequence (Q08881 whole entry): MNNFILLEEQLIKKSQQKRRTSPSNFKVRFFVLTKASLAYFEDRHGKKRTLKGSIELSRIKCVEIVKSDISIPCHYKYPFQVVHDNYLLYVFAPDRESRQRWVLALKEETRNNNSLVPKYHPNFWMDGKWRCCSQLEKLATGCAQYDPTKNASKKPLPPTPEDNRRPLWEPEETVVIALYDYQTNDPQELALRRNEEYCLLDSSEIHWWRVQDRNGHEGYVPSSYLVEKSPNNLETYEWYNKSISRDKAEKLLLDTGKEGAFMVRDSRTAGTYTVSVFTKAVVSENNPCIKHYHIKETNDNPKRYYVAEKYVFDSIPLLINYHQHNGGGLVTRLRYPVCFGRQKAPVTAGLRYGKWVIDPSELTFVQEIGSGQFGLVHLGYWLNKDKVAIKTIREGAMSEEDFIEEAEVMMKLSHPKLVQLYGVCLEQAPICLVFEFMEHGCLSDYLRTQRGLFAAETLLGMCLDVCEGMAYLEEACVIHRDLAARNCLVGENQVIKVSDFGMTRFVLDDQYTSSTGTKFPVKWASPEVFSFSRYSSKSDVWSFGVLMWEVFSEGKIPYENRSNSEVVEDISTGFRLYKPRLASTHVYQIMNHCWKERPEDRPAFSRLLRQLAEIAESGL

Membrane-associated tyrosine- and threonine-specific cdc2-inhibitory kinase (Homo sapiens), sequence (Q99640 whole entry, canonical isoform): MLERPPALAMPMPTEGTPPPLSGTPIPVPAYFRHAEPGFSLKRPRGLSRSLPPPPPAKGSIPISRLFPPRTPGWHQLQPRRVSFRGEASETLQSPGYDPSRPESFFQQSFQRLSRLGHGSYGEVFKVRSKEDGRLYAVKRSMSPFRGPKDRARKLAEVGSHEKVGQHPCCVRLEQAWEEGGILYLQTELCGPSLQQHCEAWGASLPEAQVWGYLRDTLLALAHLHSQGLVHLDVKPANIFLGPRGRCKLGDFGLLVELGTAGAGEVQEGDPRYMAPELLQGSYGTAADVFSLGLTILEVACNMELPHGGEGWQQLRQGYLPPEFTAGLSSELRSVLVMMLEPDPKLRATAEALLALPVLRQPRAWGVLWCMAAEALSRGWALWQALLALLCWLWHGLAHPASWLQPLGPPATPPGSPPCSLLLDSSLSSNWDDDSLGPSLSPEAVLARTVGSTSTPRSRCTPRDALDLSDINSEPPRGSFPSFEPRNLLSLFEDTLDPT
LIM domain kinase 1 (Homo sapiens), sequence (P53667 whole entry, looked up, the tested form may be a part): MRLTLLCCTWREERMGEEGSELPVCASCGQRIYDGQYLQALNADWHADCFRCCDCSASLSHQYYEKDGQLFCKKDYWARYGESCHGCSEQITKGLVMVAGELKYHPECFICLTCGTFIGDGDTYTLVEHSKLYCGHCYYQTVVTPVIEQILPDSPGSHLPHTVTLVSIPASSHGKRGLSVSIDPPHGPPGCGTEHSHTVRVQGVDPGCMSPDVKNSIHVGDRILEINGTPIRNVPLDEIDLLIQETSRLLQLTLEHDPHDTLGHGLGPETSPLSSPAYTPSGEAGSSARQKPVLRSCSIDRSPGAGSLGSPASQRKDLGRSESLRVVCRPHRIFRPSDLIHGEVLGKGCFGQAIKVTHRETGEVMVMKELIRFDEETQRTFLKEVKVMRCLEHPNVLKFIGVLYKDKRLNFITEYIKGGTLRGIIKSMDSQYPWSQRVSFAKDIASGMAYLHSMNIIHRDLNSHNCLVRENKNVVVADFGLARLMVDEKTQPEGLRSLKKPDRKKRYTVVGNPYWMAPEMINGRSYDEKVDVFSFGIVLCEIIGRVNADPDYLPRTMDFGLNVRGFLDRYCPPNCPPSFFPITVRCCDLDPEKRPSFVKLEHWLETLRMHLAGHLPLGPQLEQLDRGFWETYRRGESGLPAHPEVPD
Bone morphogenetic protein receptor type-1B (Homo sapiens), sequence (O00238 whole entry): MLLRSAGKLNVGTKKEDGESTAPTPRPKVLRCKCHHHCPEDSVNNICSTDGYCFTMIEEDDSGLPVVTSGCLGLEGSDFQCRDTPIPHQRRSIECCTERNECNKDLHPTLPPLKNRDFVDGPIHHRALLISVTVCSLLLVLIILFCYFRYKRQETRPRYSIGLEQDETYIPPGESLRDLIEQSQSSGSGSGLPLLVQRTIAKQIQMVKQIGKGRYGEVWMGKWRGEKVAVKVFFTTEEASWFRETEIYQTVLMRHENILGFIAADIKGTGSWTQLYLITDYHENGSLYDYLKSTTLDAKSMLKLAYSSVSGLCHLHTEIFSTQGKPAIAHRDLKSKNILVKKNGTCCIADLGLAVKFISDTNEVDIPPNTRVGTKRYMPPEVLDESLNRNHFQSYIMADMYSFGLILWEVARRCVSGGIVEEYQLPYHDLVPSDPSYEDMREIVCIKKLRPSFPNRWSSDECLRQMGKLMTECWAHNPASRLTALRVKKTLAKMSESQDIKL
Serine/threonine-protein kinase N1 (Homo sapiens), sequence (Q16512 2-942 limits assumed): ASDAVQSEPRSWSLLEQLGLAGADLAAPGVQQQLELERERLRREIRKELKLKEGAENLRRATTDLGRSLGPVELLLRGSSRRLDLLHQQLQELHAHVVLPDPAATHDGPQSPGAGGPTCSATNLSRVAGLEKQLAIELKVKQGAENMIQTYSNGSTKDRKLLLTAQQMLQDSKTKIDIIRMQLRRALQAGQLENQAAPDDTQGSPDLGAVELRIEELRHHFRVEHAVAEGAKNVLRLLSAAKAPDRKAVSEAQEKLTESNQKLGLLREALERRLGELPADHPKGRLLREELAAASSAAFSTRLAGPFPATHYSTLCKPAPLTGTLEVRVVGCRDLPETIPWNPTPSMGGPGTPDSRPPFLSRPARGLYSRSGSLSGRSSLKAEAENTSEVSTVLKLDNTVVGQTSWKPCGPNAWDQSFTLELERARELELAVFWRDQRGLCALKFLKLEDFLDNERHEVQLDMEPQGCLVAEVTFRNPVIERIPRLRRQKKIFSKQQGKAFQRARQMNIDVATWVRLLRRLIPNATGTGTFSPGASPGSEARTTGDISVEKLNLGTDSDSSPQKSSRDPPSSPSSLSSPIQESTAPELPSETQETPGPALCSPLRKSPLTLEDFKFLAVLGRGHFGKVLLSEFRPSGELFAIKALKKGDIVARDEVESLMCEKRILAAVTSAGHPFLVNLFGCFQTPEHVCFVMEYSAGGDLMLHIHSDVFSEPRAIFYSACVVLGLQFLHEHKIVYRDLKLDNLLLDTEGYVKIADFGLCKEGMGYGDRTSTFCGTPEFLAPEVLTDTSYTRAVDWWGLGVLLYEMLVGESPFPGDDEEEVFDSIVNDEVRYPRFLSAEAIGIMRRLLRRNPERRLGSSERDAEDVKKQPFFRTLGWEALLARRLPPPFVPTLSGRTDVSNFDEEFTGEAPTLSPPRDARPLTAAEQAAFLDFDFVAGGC
Serine/threonine-protein kinase TBK1 (Homo sapiens), sequence (Q9UHD2 whole entry): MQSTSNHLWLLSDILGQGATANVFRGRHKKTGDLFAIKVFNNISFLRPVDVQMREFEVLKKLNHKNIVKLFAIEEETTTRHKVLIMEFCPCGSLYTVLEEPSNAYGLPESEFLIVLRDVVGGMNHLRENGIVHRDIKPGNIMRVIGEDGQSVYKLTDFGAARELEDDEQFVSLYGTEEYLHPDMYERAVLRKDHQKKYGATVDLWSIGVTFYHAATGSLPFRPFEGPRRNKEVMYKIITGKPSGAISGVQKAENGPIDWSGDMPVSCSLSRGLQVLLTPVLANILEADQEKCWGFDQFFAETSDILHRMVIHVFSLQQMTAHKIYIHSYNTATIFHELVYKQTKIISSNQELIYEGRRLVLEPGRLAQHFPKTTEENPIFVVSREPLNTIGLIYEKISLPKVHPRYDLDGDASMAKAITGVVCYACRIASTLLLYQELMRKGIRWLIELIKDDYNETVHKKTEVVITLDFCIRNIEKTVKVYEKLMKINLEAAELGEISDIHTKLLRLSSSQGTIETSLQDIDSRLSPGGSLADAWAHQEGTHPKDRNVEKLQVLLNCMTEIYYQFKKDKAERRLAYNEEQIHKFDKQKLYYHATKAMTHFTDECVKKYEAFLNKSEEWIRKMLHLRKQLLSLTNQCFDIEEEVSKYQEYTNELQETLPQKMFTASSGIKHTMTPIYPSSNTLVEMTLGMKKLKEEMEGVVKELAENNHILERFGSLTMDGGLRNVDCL
Cyclin-dependent kinase 11B (Homo sapiens), sequence (P21127 whole entry): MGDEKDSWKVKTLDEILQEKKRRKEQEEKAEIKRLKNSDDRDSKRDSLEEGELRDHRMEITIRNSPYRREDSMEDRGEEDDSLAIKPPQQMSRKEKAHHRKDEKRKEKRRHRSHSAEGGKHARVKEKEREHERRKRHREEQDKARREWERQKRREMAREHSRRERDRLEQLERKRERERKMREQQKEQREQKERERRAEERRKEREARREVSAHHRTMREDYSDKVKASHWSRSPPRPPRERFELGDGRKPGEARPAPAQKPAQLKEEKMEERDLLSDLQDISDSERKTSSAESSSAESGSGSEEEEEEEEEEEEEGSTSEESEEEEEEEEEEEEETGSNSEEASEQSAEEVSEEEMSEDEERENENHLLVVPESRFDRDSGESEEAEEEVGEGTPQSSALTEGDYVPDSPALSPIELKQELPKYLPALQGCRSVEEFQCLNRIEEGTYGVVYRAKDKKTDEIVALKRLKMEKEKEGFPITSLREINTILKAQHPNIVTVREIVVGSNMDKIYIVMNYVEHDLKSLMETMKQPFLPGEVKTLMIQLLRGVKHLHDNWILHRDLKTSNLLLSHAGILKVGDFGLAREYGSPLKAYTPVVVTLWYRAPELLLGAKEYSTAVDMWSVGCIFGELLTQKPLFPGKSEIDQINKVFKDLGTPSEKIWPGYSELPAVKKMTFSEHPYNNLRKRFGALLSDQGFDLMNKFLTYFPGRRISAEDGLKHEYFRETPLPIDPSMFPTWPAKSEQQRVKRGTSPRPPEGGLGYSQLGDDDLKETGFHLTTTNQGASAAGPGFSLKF

| Compound | residual activity [1] [%] | residual activity [2] [%] | residual activity [3] [%] | residual activity [4] [%] | residual activity [5] [%] | residual activity [6] [%] | residual activity [7] [%] | residual activity [8] [%] | residual activity [9] [%] | residual activity [10] [%] | residual activity [11] [%] | residual activity [12] [%] | residual activity [13] [%] | residual activity [14] [%] | inhibition [15] [%] | residual activity [16] [%] | residual activity [17] [%] | residual activity [18] [%] | residual activity [19] [%] | residual activity [20] [%] | other results |
| --- | --- | --- | --- | --- | --- | --- | --- | --- | --- | --- | --- | --- | --- | --- | --- | --- | --- | --- | --- | --- | --- |
| CNCc1ccccc1-c1csc([C@@H](C)Nc2nc(C)nc3cc(OC)c(OC)cc23)c1 [BAY-293] | 71 | 60 | 92 | 85 | 99 | 100 | 93 | 83 | 85 | 100 | 89 | 70 | 86 | 85 | 47.4 | 83 | 97 | 83 | 82 | 100 | residual activity [21]: 49%; residual activity [22]: 100%; residual activity [23]: 100%; residual activity [24]: 85%; residual activity [25]: 83%; residual activity [26]: 95%; inhibition [27]: 12.3%; residual activity [28]: 99%; residual activity [29]: 100%; residual activity [30]: 98%; residual activity [31]: 100%; residual activity [32]: 100%; residual activity [33]: 100%; residual activity [34]: 76%; inhibition [35]: 71.6%; residual activity [36]: 100%; residual activity [37]: 100% |
| CNCc1ccccc1-c1csc([C@H](C)Nc2nc(C)nc3cc(OC)c(OC)cc23)c1 [BAY-294] | 78 | 71 | 88 | 94 | 93 | 97 | 100 | 87 | 93 | 100 | 100 | 88 | 100 | 81 | 56.2 | 87 | 99 | 100 | 100 | 100 | residual activity [21]: 58%; residual activity [22]: 100%; residual activity [23]: 100%; residual activity [24]: 88%; residual activity [25]: 100%; residual activity [26]: 100%; inhibition [27]: 9.67%; residual activity [28]: 100%; residual activity [29]: 87%; residual activity [30]: 100%; residual activity [31]: 100%; residual activity [32]: 100%; residual activity [33]: 93%; residual activity [34]: 80%; inhibition [35]: 83.4%; residual activity [36]: 100%; residual activity [37]: 100% |
